Measured values: US7655752B2, “TNF-α converting enzyme inhibitory agents and method of using same” (The United States of America as represented by the …, priority 2003, dated 2010)
Ends that are not written are not given here.

Tests used:
[1] = tested on: recombinant human TACE (rhTACE); test: TACE-mediated cleavage of rhTNFR2:Fc model substrate (SDS-PAGE, silver staining, Western blot); type: biochemical; conditions: for inhibition of TACE-mediated cleavage of TNFR2:Fc: 80 μM peptide, silver staining
Description: A model assay system was developed to assess the ability of N-TACE to inhibit TACE enzymatic activity. Recombinant human TACE (rhTACE), as well as the recombinant human TNFR1:Fc (rhTNFR1:Fc) and TNFR2:Fc (rhTNFR2:Fc) fusion proteins were purchased from R & D Systems (Minneapolis, Minn.). Both TNFR1:Fc and TNFR2:Fc are recombinant human chimeric proteins that encode the extracellular receptor domains, fused to a carboxy-terminal 6X-histidine-tagged Fc region of human IgG1 via a linker peptide (IEGRMD)(SEQ ID NO:1). Recombinant human TACE corresponds to the mature form following removal of the prodomain and has an apparent molecular weight of 70 kDa. N-TACE(18-54), which lacked the signal peptide, was synthesized by Sigma-Genosys (The Woodlands, Tex.). N-TACE truncation mutants were also synthesized; an amino-terminal mutant N-TACE(18-29) corresponded to N-TACE amino acids 18-29, a mid-domain mutant N-TACE(30-42) corresponded to N-TACE amino acids 30-42, a carboxy-terminal mutant N-TACE(43-54) corresponded to amino acids 43-54, and an extended mid-domain mutant N-TACE(30-48) corresponded to amino acids 30 to 48.
Chou Fasman analysis was performed using MacVector (Accelrys, Burlington, Mass.). Assays (50 μl) were performed in 50 mM Tris, 25 mM NaCl, pH 8.0 at 30° C. for 30 min. Samples were analyzed by SDS-PAGE using 4%-12% Bis-Tris Nupage gels (Invitrogen, Carlsbad, Calif.) and visualized with the SilverQuest Silver Staining Kit (Invitrogen, Carlsbad, Calif.). For Western blot analysis, samples were separated via SDS-PAGE, electroblotted onto nitrocellulose membranes, and incubated overnight (4° C.) with 200 ng/ml of a murine IgG1 monoclonal antibody directed against the histidine tag (Tetra-His, Qiagen, Valenica, Calif.). The antibody detected the carboxy-terminus of the recombinant human TNFR2:Fc fusion protein. A rabbit polyclonal antibody was also generated against N-TACE(18-54) (Sigma-Genosys, The Woodlands, Tex.) and was utilized for Western blotting at a 1:1000 dilution. Detection was by chemiluminescence using horseradish peroxidase-conjugated secondary antibodies.

[2] = tested on: TNFR2 shedding from U937 cells; test: TNFR2 shedding from U937 cells (sandwich ELISA of soluble TNFR2 in supernatants); type: cell-based; conditions: 40 μM, 24 hours
Method: (§1) The ability of N-TACE to inhibit TNFR2 shedding was tested in a cell-based system. U937 cells were obtained from ATCC (Manassas, Va.) and maintained in RPMI-1640 medium with 10% fetal bovine serum. For experiments, U937 cells were plated into 6 well plates at a density of 2×10^6 cells/ml. PMA was purchased from Sigma (St. Louis, Mo.). Release of TNFR2 into […] cell culture supernatants over a 24-hour period was assayed utilizing a sandwich ELISA with a sensitivity of 7.8 pg/ml (R & D Systems). Cellular apoptosis and necrosis were measured using the TACS Annexin V-FITC Apoptosis Detection Kit (R & D Systems, Minneapolis, Minn.) and a XL-MCL Flow Cytometer (Becman-Coulter, Miami, Fla.). Statistical analysis was performed by a paired Student's t test with a Bonferroni correction for multiple comparisons and by single factor ANOVA. Differences were considered significant at a P value <0.05.
(§2) The U937 monocytic cells were treated for 24 hours with either N-TACE(18-54) (0.04 to 40 μM), or a peptide corresponding to N-TACE amino acids 18-29 (40 μM). […] In contrast, N-TACE(18-29) had no effect on TNFR2 shedding as compared to cells treated with media alone (186.5±1.8 vs. 184.6±2.2, n=6, P=NS).

[3] = tested on: U937 cells; test: Cellular apoptosis and necrosis (Annexin V binding and propidium iodide uptake, flow cytometry); type: cell-based
Method: as §1, §2

[4] = 0.5 μM rhTACE, 0.95 μM TNFR2:Fc, 30 min

| Molecule | inhibition of TACE-mediated cleavage of TNFR2:Fc [1, 4] | also measured |
| --- | --- | --- |
| N-TACE(30-42): mid-domain truncation mutant corresponding to N-TACE amino acids 30-42 (QRLEKLDSLLSDY) | none of the N-TACE truncation mutants (80 μM) inhibited |  |
| N-TACE(30-48): extended mid-domain mutant, 19-amino acid leucine-rich peptide, amino acids 30 to 48; QRLEKLDSLLSDYDILSLS (listed as Homo sapiens) | inhibited | inhibition of TNFR2 shedding ([2]; compared to cells treated with media alone): about 16% |
| N-TACE: 54 amino acid protein: first 54 amino acids of TACE, signal peptide plus amino-terminus of prodomain, SEQ ID NO:3 (MRQSLLFLTSVVPFVLAPRPPDDPGFGPHQRLEKLDSLLSDYDILSLSNIQQHS; listed as Homo sapiens) |  | inhibition of TACE-mediated cleavage of TNFR2:Fc (summary statement) ([1]; concentration not given): shown to inhibit |
| CC(C)C[C@H](CC(=O)NO)C(=O)N[C@H](C(=O)N[C@@H](C)C(=O)NCCN)C(C)(C)C [TAPI-2, reference compound] |  | inhibition of TACE-mediated TNFR2 cleavage ([1]; 25 μM, 0.5 μM rhTACE, 0.95 μM TNFR2:Fc, 30 min): completely inhibited |
| N-TACE(43-54): carboxy-terminal truncation mutant corresponding to amino acids 43-54 (DILSLSNIQQHS) | none of the N-TACE truncation mutants (80 μM) inhibited |  |
| N-TACE(18-29): amino-terminal truncation mutant corresponding to N-TACE amino acids 18-29 (PRPPDDPGFGPH) | none of the N-TACE truncation mutants (80 μM) inhibited | effect on TNFR2 shedding ([2]; compared to media alone): no effect |
| PRPPDDPGFGPHQRLEKLDSLLSDYDILSLSNIQQHS [N-TACE(18-54)] |  | apoptosis or necrosis as cause of decreased TNFR2 shedding [3]: not a consequence of either apoptosis or necrosis |
| vasoactive intestinal peptide (HSDAVFTDNYTRLRKQMAVKKYLNSILN) [VIP, irrelevant peptide purchased from Bachem, specificity control, reference compound] | neither α-defensin or VIP inhibited |  |
